According to patent publication US20070020190A1, “Medicament comprising a highly potent long-lasting beta2-agonist in combination with other active ingredients” (priority 2003, published 2007):
Structures can show the parent of a compound that is named as a salt.

Assays:
[1] = system: acetylcholine-induced bronchoconstriction in guinea-pigs; assay: Acetylcholine-induced bronchoconstriction in guinea pigs (Konzett and Rossler); format: in vivo, guinea pig; conditions: for ED50, acetylcholine-induced bronchoconstriction: acetylcholine 20 μg/kg iv, superfused onto tracheal mucosa
Procedure: Guinea pigs were prepared as originally described by Konzett and Rossler, Naunyn-Schmiedeberg's Arch Pharmacol, 1940; 195: 556-557.
Bronchoconstriction was induced by intravenous administration of acetylcholine (20 μg/kg). The antibronchospastic activity of different concentrations of tiotropium (0.1 to 30 pmol) or TA 2005 (0.3 to 100 pmol), alone or in combination, was investigated.

[2] = system: isolated guinea pig tracheal strips; assay: Carbachol-induced contraction in isolated guinea pig tracheal strips
Excerpt: The pharmacological interaction between the β2-adrenoceptor agonist TA 2005 and the M3-receptor antagonist tiotropium bromide was investigated in isolated guinea pig tracheal strips contracted with carbachol.

[3] = system: bronchoconstriction induced by acetaldehyde in the guinea pig; assay: Acetaldehyde-induced bronchoconstriction, histamine release and plasma extravasation in anaesthetized ventilated guinea pigs; format: in vivo
Procedure: Pharmacol., 362:184-189, 2000; as well as in a model of acetaldehyde induced bronchoconstriction (Berti et al., Arzneim-Forsch/Drug Res 1994; 44: 323-326).
The protective activity of TA 2005 (0.1 to 10 pmol), formoterol (0.3 to 30 pmol) or budesonide (31.25 to 500 nmol) was determined after intratracheal superfusion alone or in combination.

[4] = system: rat lung oedema induced by Sephadex; assay: Sephadex-induced lung oedema model; format: in vivo; conditions: intratracheal; for non effective dose on Sephadex-induced lung oedema: from dose-response curves
Procedure: The rat lung oedema induced by Sephadex is a model which leads to inflammatory cells infiltration and long-lasting interstitial oedema. […] The test substances were suspended in saline and administered intratracheally suitably diluted in the Sephadex suspension. 24 h post-administration, the animals were sacrificed and the lungs removed and weighted. Percent inhibition of the Sephadex-induced oedema was then determined.

asthmatic patients = assay: Preliminary clinical trial of bronchodilator efficacy (FEV1 by spirometry) in asthmatic patients; format: in vivo; conditions: single dose of 1 μg, inhalation
Procedure: The bronchodilator efficacy of TA 2005, defined as increase from baseline in the forced expiratory volume over one second (FEV1), measured by spirometry, has been assessed in a preliminary clinical trial in a small group of asthmatic patients.
The results have shown that already following administration of a single dose of 1 μg a mean and persistent increase of FEV1 approximately 30% greater than baseline can be obtained.

[5] = system: isolated tracheal strips from ovalbumin-sensitised guinea pigs; assay: β2-desensitisation in isolated tracheal strips from ovalbumin-sensitised guinea pigs (carbachol-induced contraction); set-up: species or system guinea pig
Procedure: A prolonged use of β2-agonists results in down-regulation of pulmonary β2-adenoceptors. This phenomenon can be counteracted by concomitant treatment with a corticosteroid.
In the present study tracheal strips obtained from ovalbumin-sensitised guinea-pigs (100 mg/kg ip and 100 mg/kg sc, 20 days before sacrifice) were submitted to β2-desensitisation by contact for two 20-min periods with a supra-maximal concentration of salbutamol (5*10^−6 M). In some experiments guinea pigs 24 and 1.5 h before sacrifice received 50 mg/kg ip of budesonide.

healthy male volunteers = conditions: single inhaled doses 0.8-12.8 μg, cited from earlier work

C[N+]1(C)[C@@H]2C[C@@H](OC(=O)C(O)(c3cccs3)c3cccs3)C[C@H]1[C@@H]1O[C@@H]12 [tiotropium bromide]
potency relative to TA 2005 ([1]; P<0.001): 5.2 fold | ED50, acetylcholine-induced bronchoconstriction [1]: 3.2 pmol | effect on acetylcholine-induced bronchoconstriction ([1]; tiotropium 0.1-30 pmol, TA 2005 0.3-100 pmol, alone): dose-dependently antagonize | inhibition of carbachol-induced contraction ([2]; tiotropium bromide 3*10^−10 M): 17.1±2.2%

CCCC1O[C@@H]2C[C@H]3[C@@H]4CCC5=CC(=O)C=C[C@]5(C)[C@H]4[C@@H](O)C[C@]3(C)[C@]2(C(=O)CO)O1 (stereo partly shown) [budesonide]
ED50, bronchoconstriction ([3]; budesonide alone, intratracheal superfusion): 396 nmol | fold reduction of budesonide ED50, bronchoconstriction ([3]; combined with 0.1 pmol of TA 2005): 5.3 fold | fold reduction of budesonide ED50, bronchoconstriction ([3]; combined with 0.3 pmol of TA 2005): 14.3 fold | fold reduction of budesonide ED50, bronchoconstriction ([3]; combined with 0.3 pmol of formoterol): 3.0 fold | fold reduction of budesonide ED50, bronchoconstriction ([3]; combined with 1 pmol of formoterol): 5.9 fold | dose of budesonide needed to significantly inhibit Sephadex-induced lung oedema ([4]; budesonide alone (absence of TA 2005)): 240 nmol/kg | dose of budesonide significantly inhibiting Sephadex-induced lung oedema ([4]; in the presence of TA 2005 (0.01 nmol/kg)): 15 nmol/kg | dose of budesonide giving significant reduction in Sephadex-induced lung weight increase ([4]; in the presence of formoterol (0.1 nmol/kg)): 120 nmol/kg

COc1ccc(CC(C)NCC(O)c2ccc(O)c3[nH]c(=O)ccc23)cc1 [TA 2005, 8-Hydroxy-5-[(1R)-1-hydroxy-2-[[(1R)-2-(4-methoxyphenyl)-1-methylethyl]amino]ethyl-2(1H)-quinolinone hydrochloride salt]
mean and persistent increase of FEV1 greater than baseline (asthmatic patients): approximately 30% | loss of potency in relaxing the carbachol-induced contraction ([5]; after β2-desensitisation with salbutamol 5*10^−6 M): about 3 times | potentiation of relaxing effects ([5]; after β2-desensitisation, budesonide pretreatment 50 mg/kg ip 24 and 1.5 h before sacrifice): about 6 times | inhibition of the effect of acetylcholine ([1]; 3 pmol of TA 2005 in the absence of tiotropium): 18% | ED50, acetylcholine-induced bronchoconstriction [1]: 16.7 pmol | maximum no adverse effect dose (healthy male volunteers; metered dose nebuliser system): 9.6 µg | effect on heart rate, tremor, pulmonary function and plasma potassium (healthy male volunteers): dose-dependent increase in heart rate, tremor and pulmonary function and a decrease in plasma potassium | inhibition at 1 pM ([2]; Cavia porcellus, TA 2005 10^−12 M): 29.3 ± 6.1% | non effective dose on Sephadex-induced lung oedema [4]: 0.01 nmol/kg

COc1ccc(CC(C)NCC(O)c2ccc(O)c(NC=O)c2)cc1 (stereo not shown) [formoterol]
decline of anti-bronchoconstrictive effect after 240 min ([3]; 30 pmol, intratracheal superfusion): ~50% | effect on AcCHO effects (bronchoconstriction, histamine release, plasma extravasation) ([3]; intratracheal superfusion, TA 2005 0.1-10 pmol, formoterol 0.3-30 pmol, budesonide 31.25-500 nmol): potently antagonised | effect on Sephadex-induced lung oedema ([4]; 24 h post-administration, TA 2005 0.001-0.1, formoterol 0.01-2, budesonide 15-480 nmol/kg): dose-dependent remission | non effective dose on Sephadex-induced lung oedema [4]: 0.1 nmol/kg
